From patent US20230076803A1, “COMPOUND AND DRUG CONJUGATE, AND PREPARATION METHOD AND USE THEREOF” (priority 2019, published 2023)
Where two headings read alike, the source gives them in different places.

Experiments:
HBsAg [1] = settings: AAV-HBV low concentration model mice, 3 mg/kg subcutaneous single dose
Procedure: The AAV-HBV low concentration model mice were used. After the animal models were successfully established, they were randomly divided into groups according to serum HBsAg content (five mice per group). […] The blank group was administered with only 5 mL/kg 1×PBS. Blood was collected from mouse orbital venous plexus before administration and on day 14, 28, 42, 56, 70, 84, 98, 112, 126, 140, 154, 168, 182, and 196 days after administration, and the serum HBsAg level was determined at each time point.
About 100 μL orbital blood was taken each time, and no less than 20 NL serum was collected after centrifugation. The HBsAg content in serum was determined by using HBsAg CLIA kit (Autobio, CL0310) according to the instructions provided by the manufacturer.
Normalized expression level of HBsAg=(HBsAg content after administration/HBsAg content before administration)×100%.

HBV mRNA [2] = test: Inhibition of HBV mRNA expression in liver of 44Bri mice, day 7 (Exp. Ex. 2-6); assay type: in vivo, HBV transgenic mice C57BL/6J-Tg(Alb1HBV)44Bri/J; settings: 1 mg/kg subcutaneous, day 7 after administration
Description: (§1) HBV transgenic mice C57BL/6J-Tg(Alb1HBV)44Bri/J: purchased from Department of Laboratory Animal Science, Peking University Health Science Center. Mice with S/COV >10 were selected before the experiment. Hereinafter, the transgenic mice were sometimes abbreviated as 44Bri model mice;
In this experimental example, the inhibitory efficiency of different concentrations of Conjugate 32 on the expression level of HBV mRNA in HBV transgenic mice C57BL/6J-Tg (Alb1HBV) 44Bri/J was investigated. […]
The expression level of HBV mRNA in the liver tissue of each mouse was determined by real-time fluorescent quantitative PCR. Specifically, the total RNA extracted from the liver tissue of each mouse was reverse-transcribed into cDNA using ImProm-II™ reverse transcription kit (Promega) according to the instructions thereof, and then the expression level of HBV mRNA in liver tissue was determined by the fluorescent quantitative PCR kit (Beijing Cowin Biosciences Co., Ltd.) and the inhibitory efficiency was calculated. In this fluorescent quantitative PCR method, GAPDH gene was used as an internal control gene, and the HBV and GAPDH were detected by using the primers for HBV and GAPDH, respectively. […]

[3] = SD rats, subcutaneous single dose 0.5 mg/kg and 1 mg/kg
Procedure: In this Experimental Example, the rats in each experimental group (10 rats in each group, half male and half female) were administered with Conjugate 32 by subcutaneous injection respectively at a single dose of 1 mg/kg and 0.5 mg/kg of rat body weight. The plasma drug concentration and liver tissue drug concentration in rats at each time point were then measured.
First, SD rats were randomly divided into groups according to the body weight and gender of the rat using the [sequence] version 7.2.0 data system, and then the conjugates were administered at the designed doses, respectively. All animals were dosed based on body weight and subcutaneously administered at a single doses of 1 and 0.5 mg/kg (provided in the form of 0.1 mg/mL and 0.05 mg/mL in 0.9% aqueous sodium chloride solution, with a volume of 10 mL/kg). The rat's whole blood was collected from the jugular vein before administration and 5 minutes (±30 seconds), 30 minutes (±1 minute), 1 hour (±2 minutes), 2 hours (±2 minutes), 6 hours (±5 minutes), 24 hours (±10 minutes), 48 hours (±20 minutes), 72 hours (±20 minutes), 120 hours (±30 minutes), and 168 hours (±30 minutes) after administration. […]
The concentration of Conjugate 32 in rat plasma and liver tissue was quantitatively determined by HPLC-FLD (High Performance Liquid Fluorescence Chromatography) according to the following steps: […]

HBV mRNA [4] = test: Inhibition of HBV mRNA expression in liver of 44Bri mice, day 14 (Exp. Ex. 2-4); assay type: in vivo, HBV transgenic mice C57BL/6J-Tg(Alb1HBV)44Bri/J; settings: 1 mg/kg subcutaneous single dose, day 14 after administration
Description: as §1
In this experimental example, the inhibitory efficiency of Conjugate 32 on the expression level of HBV mRNA in HBV-transgenic mice C57BL/6J-Tg (A 1b1HBV) 44Bri/J was investigated.
The HBV transgenic mice C57BL/6J-Tg (Alb1HBV) 44Bri/J used in this experimental example were purchased from the Department of Laboratory Animal Science, Peking University Health Science Center. […]
For each mouse, 1 μg of total RNA was taken, and the extracted total RNA was reverse-transcribed into cDNA using ImProm-II™ reverse transcription kit (Promega Crop.) according to the instructions thereof to obtain a solution containing cDNA, and then the expression level of HBV mRNA in liver tissue was determined by the fluorescent quantitative PCR kit (Beijing Cowin Biosciences Co., Ltd.). In this fluorescent quantitative PCR method, R-actin gene was used as an internal control gene, and HBV and 3-actin were detected by using primers for HBV and β-actin, respectively. […]

[5] = 90% cynomolgus monkey plasma, 37° C., period of up to 72 hours
Procedure: Therein, 0 hour is the time when 10 μL of the mixed solution was taken immediately after the conjugate solution was mixed well with 90% cynomolgus monkey plasma. After sampling at each time point, each mixed solution was diluted 5-fold with 1×PBS (pH7.4), and 10 μL of each diluted mixed solution was taken for electrophoresis.
20 wt % of non-denatured polyacrylamide gel was prepared. The samples for electrophoresis in each group of the above diluted samples were mixed with 4 μL of loading buffer (20 mM EDTA, 36 wt % glycerol, and 0.06 wt % aqueous solution of bromophenol blue) and loaded into each gel well for electrophoresis under 80 mA constant current for 60 minutes. After electrophoresis, the gel was stained with 1×Sybr Gold dye (Invitrogen, Cat. 11494) for 15 minutes and imaged.

HBV DNA = test: Time course of serum HBV DNA in AAV-HBV low concentration model mice (Exp. Ex. 2-7); assay type: in vivo; settings: 3 mg/kg subcutaneous single dose
Description: (§2) The AAV-HBV low concentration model mice were used.
Normalized expression level of HBV DNA=(HBV DNA content after administration/HBV DNA content before administration)×100%.

HBV mRNA [6] = test: Inhibition of HBV mRNA on day 70 (Exp. Ex. 2-7, FIG. 9); assay type: in vivo, AAV-HBV low concentration model mice; settings: 1 mg/kg or 3 mg/kg, day 70 after administration
Procedure: as §2
In a further experiment, the inhibitory effect on HBV mRNA on day 70 was tested according to the detection method of Example 6 above, and the results are shown in FIG. 9.

HBsAg [7] = settings: M-Tg HBV mice, 3 mg/kg subcutaneous single dose, period of up to 70 days
Procedure: HBV transgenic mice: named as M-Tg HBV, purchased from the Animal Department of Shanghai Public Health Center. […] Hereinafter, the transgenic mice were sometimes abbreviated as M-Tg model mice;
M-Tg HBV mice (purchased from the Animal Department of Shanghai Public Health Center) were used. […] The AAV virus used is rAAV8-1.3HBV, type D (ayw) virus, purchased from Beijing FivePlus Molecular Medicine Institute Co. Ltd., 1×10^12 viral genome (v.g.)/mL, Lot No. 2016123011. The AAV virus was diluted to 5×10^11 v.g./mL with sterilized PBS prior to the experiment. Each mouse was injected with 200 μL (that is, each mouse was injected with 1×10^11 v.g). […] Each conjugate was administered in the form of 0.2 mg/mL or 0.6 mg/mL (both calculated based on siRNA) in 0.9% aqueous sodium chloride solution, with an administration volume of 5 mL/kg mouse body weight; that is, the administration doses of each conjugate (calculated based on siRNA) were 1 mg/kg and 3 mg/kg. […] The blood was collected from mouse orbital venous plexus before administration and on day 7, 14, 21, 28, 35, 42, 49, 63, and 70 days after administration, and the serum HBsAg level was determined at each time point. […]
The inhibition rate against HBsAg is calculated according to the following equation:
wherein HBsAg content is expressed as the equivalents (UI) of HBsAg per millilitre (mL) of serum.

With “Conjugate 32: siRNA conjugate, S SEQ ID NO 367, AS SEQ ID NO 368, Table 2A; conjugated via Compound N-62 (sense CCUUGAGGCAUACUUCAAA; antisense UUUGAAGUAUGCCUCAAGGUU; conjugated via Compound N-62, position not given here)” the “inhibition rate against serum HBsAg” value (HBsAg [1]) was “up to 90.9%”, the “inhibition rate against HBV mRNA in liver tissue” value (HBV mRNA [2]) was “up to 91.96%” and the “concentration in rat plasma over time” value [3] was “rapidly decreased to below detection limit within a few hours”. The “time for which the concentration in liver tissue maintained a higher and stable level” value [3] was “at least 150 hours”, the “inhibition rate against HBV mRNA in liver tissue” value (HBV mRNA [4]) was “up to 89.86%” and the “stability in cynomolgus monkey plasma in vitro (semiquantitative)” value [5] was “remain undegraded”. The “inhibition rate against HBV DNA in serum” value (HBV DNA) was “up to 85.7%”, the “inhibitory effect on HBV mRNA on day 70” value (HBV mRNA [6]) was “can still inhibit the expression level of HBV mRNA to a certain extent” and the “inhibition rate against serum HBsAg” value (HBsAg [7]) was “up to 97.80%”.
